For experiment [1], the system named is male spontaneously hypertensive rats. The experiment is described as follows: Blood pressure lowering in spontaneously hypertensive rats (systolic pressure, caudal plethysmograph). Type of experiment: in vivo, rat. The procedure:
In addition, the blood pressure lowering ability of the compounds of this invention was established by measuring the systolic pressure of male spontaneously hypertensive rats with a Decker Caudal Plethysmograph. The compounds tested were administered orally and blood pressure was read prior to and at 1.5, 4 and 24 hours after drug administration.

For experiment [2], the system named is angiotensin converting enzyme. As to the kind of experiment: In vivo inhibition of angiotensin converting enzyme: blood pressure responses to i.v. angiotensin I in conscious normotensive rat after oral dosing. The following applies: 10 mg/kg, 10 minutes post dosing, mean two animals. The procedure: The in vitro experiments were confirmed following the procedure of Rubin et al, J. Pharmacol. Exp. Ther 204 721 (1978) whereby jugular vein and carotid artery cannulae are placed in an ether anesthetized, normotensive,male, Spraque-Dawley rat for injection of compounds and direct recording of systemic arterial pressure, respectively. The blood pressure responses in the conscious animal to i.v. injections of angiotensin I (300 ng/kg), angiotensin II (100 ng/kg) and bradykinin (10 μg/kg) are recorded and compared with identical doses administered at various time intervals after oral dosing of the angiotensin converting enzyme inhibitor of this invention.

The target in experiment [3] is T1, angiotensin converting enzyme (Oryctolagus cuniculus, UniProt P12822).
T1 construct: A crude angiotensin converting enzyme supernatant is obtained by blending 1 gm. of rabbit lung acetone powder; tissue Pel-Freez Biologicals; host or cells: rabbit lung (acetone powder; crude 40,000 xg supernatant)
T1 sequence (P12822 34-1310): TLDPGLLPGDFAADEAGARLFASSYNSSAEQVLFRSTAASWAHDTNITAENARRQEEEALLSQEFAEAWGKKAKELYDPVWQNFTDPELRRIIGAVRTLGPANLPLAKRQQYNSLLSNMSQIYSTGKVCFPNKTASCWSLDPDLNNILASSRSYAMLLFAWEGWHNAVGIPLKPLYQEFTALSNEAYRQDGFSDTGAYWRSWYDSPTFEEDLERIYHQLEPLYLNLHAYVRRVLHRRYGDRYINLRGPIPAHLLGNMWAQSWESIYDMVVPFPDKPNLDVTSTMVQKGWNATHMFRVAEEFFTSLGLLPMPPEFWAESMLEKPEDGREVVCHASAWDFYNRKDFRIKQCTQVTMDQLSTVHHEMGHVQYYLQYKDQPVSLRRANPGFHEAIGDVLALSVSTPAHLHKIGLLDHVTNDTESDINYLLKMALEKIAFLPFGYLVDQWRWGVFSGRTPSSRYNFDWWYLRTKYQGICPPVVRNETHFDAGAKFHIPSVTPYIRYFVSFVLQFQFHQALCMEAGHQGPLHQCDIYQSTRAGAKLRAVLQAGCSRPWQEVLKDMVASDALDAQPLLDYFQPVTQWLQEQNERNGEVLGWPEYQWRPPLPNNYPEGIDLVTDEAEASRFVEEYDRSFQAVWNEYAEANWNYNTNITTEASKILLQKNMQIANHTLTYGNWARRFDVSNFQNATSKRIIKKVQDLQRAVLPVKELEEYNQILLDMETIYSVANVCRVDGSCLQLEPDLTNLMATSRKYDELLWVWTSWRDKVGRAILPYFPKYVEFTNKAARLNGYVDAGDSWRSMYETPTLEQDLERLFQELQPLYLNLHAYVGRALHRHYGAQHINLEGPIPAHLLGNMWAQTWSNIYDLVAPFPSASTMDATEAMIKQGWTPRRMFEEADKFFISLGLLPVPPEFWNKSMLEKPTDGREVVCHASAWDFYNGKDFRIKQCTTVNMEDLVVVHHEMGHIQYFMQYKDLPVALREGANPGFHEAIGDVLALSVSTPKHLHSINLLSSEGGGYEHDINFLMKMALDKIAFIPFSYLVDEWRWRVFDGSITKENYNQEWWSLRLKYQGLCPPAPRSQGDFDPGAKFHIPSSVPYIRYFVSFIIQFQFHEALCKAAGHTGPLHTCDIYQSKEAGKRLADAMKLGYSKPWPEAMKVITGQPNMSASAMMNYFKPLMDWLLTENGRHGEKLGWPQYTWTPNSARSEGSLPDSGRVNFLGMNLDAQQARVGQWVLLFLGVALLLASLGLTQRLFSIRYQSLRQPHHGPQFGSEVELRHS
As to the kind of experiment: Inhibition of hippuryl-L-histidyl-L-leucine hydrolysis by angiotensin converting enzyme, in vitro. Format: biochemical, rabbit. The procedure:
The activity of the compounds of this invention was established by incubation of hippuryl-L-histidyl-L-leucine at 37° C. with angiotensin converting enzyme by the following procedure:
A crude angiotensin converting enzyme supernatant is obtained by blending 1 gm. of rabbit lung acetone powder (Pel-Freez Biologicals) with 35 ml of 50 mM (buffered) potassium phosphate, pH 8.3 and centrifuging for 45 min. at 40,000 xg.
The specific angiotensin converting enzyme substrate Hippuryl-L-histidyl-L-leucine (HHL--Sigma Chem. Co.) is prepared at 5 mM in 200 mM potassium phosphate buffer containing 757 mM NaCl at pH 8.3.
Incubation for the assay of HHL hydrolysis by angiotensin converting enzyme is carried out in a 37° C. gyrorotary incubator in disposable 13×100 mm tubes. Each 0.25 ml assay mixture contains the following components at the final concentrations: potassium phosphate buffer, 100 mM; NaCl, 300 mM; HHL, 5 mM; and enzyme 0.15 ml (10 mU approx.) added last to initiate the reaction. Zero time controls have 0.25 ml of 2 N HCl added before the enzyme. The timed reactions are terminated with acid at 30 min. similarly and the hippuric acid freed from substrate is extracted into 1.5 ml of ethylacetate by vortex mixing for 15 sec. After 5 min. centrifugation in a clinical centrifuge, a 1.0 ml aliquot of the ethyl acetate layer is transferred to a clean tube. These aliquots are evaporated to dryness by heating (120° C.) in a Temp-Block module heater.
The hippuric acid is resuspended in 1.0 ml of water, the absorbance at 228 nm is determined, and the amount present is calculated from a standard curve. The amount of hippuric acid×1.1 (extraction coefficient)×1.5 (ratio of volumes)×1 μM hippuric acid/[…]×1/30 min.=nM hippuric acid released/min. Enzyme activity in the presence of an inhibitor is compared with control activity, and reported as a percentage inhibition. (Cushman, D. W. and Cheung, H. S., Biochem. Pharmacol. 20 1637 (1971).

Data on 4 compounds can be found in patent US4290952A, “Aryl-1-mercaptoalkanoylproline and homoproline derivatives” (American Home Products Corporation, priority 1980, dated 1981).

Regarding `O=C(O)[C@@H]1CC[C@H](c2ccccc2)N1C(=O)CCS` (relative stereo) [Example four, cis-1-(3-Mercaptopropanoyl)-5-phenyl proline], in experiment [1] (50 mg/kg oral dose, four hours after administration), the “reduction of systolic blood pressure in spontaneously hypertensive rats” value stood at 21 millimeters. This compound yielded an inhibition in vivo in experiment [2] of 65%. In addition, in experiment [3] (100 ng/ml), the inhibition at 0.1 µg/mL amounted to 72%.

Regarding `COc1ccc([C@H]2CC[C@@H](C(=O)O)N2C(=O)CCS)cc1OC` (relative stereo) [Example two, cis-1-(3-Mercaptopropanoyl)-5-(3,4-Dimethoxyphenyl)proline], the “reduction of systolic blood pressure in spontaneously hypertensive rats” value in experiment [1] (50 mg/kg orally administered) is given as 23 mmHg. This compound also showed an inhibition in vivo in experiment [2] of 72%. The inhibition at 0.1 µg/mL in experiment [3] (100 ng/ml) was found to be 40%.

Consider `CC(CSC(=O)c1ccccc1)C(=O)N1[C@@H](c2ccccc2)CC[C@H]1C(=O)O` (single isomer, unassigned) [α-acid of Example 7, 5-Phenyl-1-(3-benzoylthio-2-methyl-1-oxopropyl)proline], for which the “inhibition of angiotensin converting enzyme in vitro” value in experiment [3] (100 ng/ml) is 3%; in experiment [3] (1000 ng/ml), 17%.

Consider `CC(CSC(=O)c1ccccc1)C(=O)N1[C@@H](c2ccccc2)CC[C@H]1C(=O)O` (single isomer, unassigned) [β-acid of Example 7, 5-Phenyl-1-(3-benzoylthio-2-methyl-1-oxopropyl)proline], for which the “reduction of blood pressure in the rat” value in experiment [1] (10 mg/kg, oral) worked out at 37 mmHg. Besides, in experiment [3] (1 ng/ml), the inhibition at 0.001 µg/mL was 20%. The inhibition at 0.01 µg/mL in experiment [3] (10 ng/ml) worked out at 40%. Further, the inhibition at 0.05 µg/mL in experiment [3] (50 ng/ml) was found to be 75%. The results for the “inhibition of angiotensin converting enzyme in vitro” value in experiment [3] (100 ng/ml) and in experiment [3] (1000 ng/ml) were 84% and 99%, respectively.
